How the values were obtained:
A. baumannii ATCC 19606 = conditions: Table S3; for MIC after treatment 1: serial exposure at MIC/2, treatment 1 of 21; for MIC after treatment 2: serial exposure at MIC/2, treatment 2 of 21; for MIC after treatment 3: serial exposure at MIC/2, treatment 3 of 21; for MIC after treatment 4: serial exposure at MIC/2, treatment 4 of 21; for MIC after treatment 5: serial exposure at MIC/2, treatment 5 of 21; for MIC after treatment 6: serial exposure at MIC/2, treatment 6 of 21; for MIC after treatment 7: serial exposure at MIC/2, treatment 7 of 21; for MIC after treatment 8: serial exposure at MIC/2, treatment 8 of 21; for MIC after treatment 9: serial exposure at MIC/2, treatment 9 of 21; for MIC after treatment 10: serial exposure at MIC/2, treatment 10 of 21; for MIC after treatment 11: serial exposure at MIC/2, treatment 11 of 21; for MIC after treatment 12: serial exposure at MIC/2, treatment 12 of 21; for MIC after treatment 13: serial exposure at MIC/2, treatment 13 of 21; for MIC after treatment 14: serial exposure at MIC/2, treatment 14 of 21; for MIC after treatment 15: serial exposure at MIC/2, treatment 15 of 21; for MIC after treatment 16: serial exposure at MIC/2, treatment 16 of 21; for MIC after treatment 17: serial exposure at MIC/2, treatment 17 of 21; for MIC after treatment 18: serial exposure at MIC/2, treatment 18 of 21; for MIC after treatment 19: serial exposure at MIC/2, treatment 19 of 21; for MIC after treatment 20: serial exposure at MIC/2, treatment 20 of 21; for MIC after treatment 21: serial exposure at MIC/2, treatment 21 of 21
[1] = system: S. epidermidis ATCC 35984; conditions: Table S4; for MIC after treatment 1: serial exposure at MIC/2, treatment 1 of 21; for MIC after treatment 2: serial exposure at MIC/2, treatment 2 of 21; for MIC after treatment 3: serial exposure at MIC/2, treatment 3 of 21; for MIC after treatment 4: serial exposure at MIC/2, treatment 4 of 21; for MIC after treatment 5: serial exposure at MIC/2, treatment 5 of 21; for MIC after treatment 6: serial exposure at MIC/2, treatment 6 of 21; for MIC after treatment 7: serial exposure at MIC/2, treatment 7 of 21; for MIC after treatment 8: serial exposure at MIC/2, treatment 8 of 21; for MIC after treatment 9: serial exposure at MIC/2, treatment 9 of 21; for MIC after treatment 10: serial exposure at MIC/2, treatment 10 of 21; for MIC after treatment 11: serial exposure at MIC/2, treatment 11 of 21; for MIC after treatment 12: serial exposure at MIC/2, treatment 12 of 21; for MIC after treatment 13: serial exposure at MIC/2, treatment 13 of 21; for MIC after treatment 14: serial exposure at MIC/2, treatment 14 of 21; for MIC after treatment 15: serial exposure at MIC/2, treatment 15 of 21; for MIC after treatment 16: serial exposure at MIC/2, treatment 16 of 21; for MIC after treatment 17: serial exposure at MIC/2, treatment 17 of 21; for MIC after treatment 18: serial exposure at MIC/2, treatment 18 of 21; for MIC after treatment 19: serial exposure at MIC/2, treatment 19 of 21; for MIC after treatment 20: serial exposure at MIC/2, treatment 20 of 21; for MIC after treatment 21: serial exposure at MIC/2, treatment 21 of 21

Substance: Polymyxin B [reference compound]
- MIC after treatment 1 (A. baumannii ATCC 19606): 2 µM
- MIC after treatment 2 (A. baumannii ATCC 19606): 2 µM
- MIC after treatment 3 (A. baumannii ATCC 19606): 2 µM
- MIC after treatment 4 (A. baumannii ATCC 19606): 2 µM
- MIC after treatment 5 (A. baumannii ATCC 19606): 2 µM
- MIC after treatment 6 (A. baumannii ATCC 19606): 2 µM
- MIC after treatment 7 (A. baumannii ATCC 19606): 2 µM
- MIC after treatment 8 (A. baumannii ATCC 19606): 2 µM
- MIC after treatment 9 (A. baumannii ATCC 19606): 2 µM
- MIC after treatment 10 (A. baumannii ATCC 19606): 2 µM
- MIC after treatment 11 (A. baumannii ATCC 19606): 2 µM
- MIC after treatment 12 (A. baumannii ATCC 19606): 2 µM
- MIC after treatment 13 (A. baumannii ATCC 19606): 2 µM
- MIC after treatment 14 (A. baumannii ATCC 19606): 2 µM
- MIC after treatment 15 (A. baumannii ATCC 19606): 2 µM
- MIC after treatment 16 (A. baumannii ATCC 19606): 2 µM
- MIC after treatment 17 (A. baumannii ATCC 19606): 2 µM
- MIC after treatment 18 (A. baumannii ATCC 19606): 2 µM
- MIC after treatment 19 (A. baumannii ATCC 19606): 2 µM
- MIC after treatment 20 (A. baumannii ATCC 19606): 2 µM
- MIC after treatment 21 (A. baumannii ATCC 19606): 2 µM
- MIC after treatment 1 [1]: 4 µM
- MIC after treatment 2 [1]: 4 µM
- MIC after treatment 3 [1]: 4 µM
- MIC after treatment 4 [1]: 4 µM
- MIC after treatment 5 [1]: 4 µM
- MIC after treatment 6 [1]: 4 µM
- MIC after treatment 7 [1]: 4 µM
- MIC after treatment 8 [1]: 4 µM
- MIC after treatment 9 [1]: 4 µM
- MIC after treatment 10 [1]: 4 µM
- MIC after treatment 11 [1]: 4 µM
- MIC after treatment 12 [1]: 4 µM
- MIC after treatment 13 [1]: 4 µM
- MIC after treatment 14 [1]: 4 µM
- MIC after treatment 15 [1]: 4 µM
- MIC after treatment 16 [1]: 4 µM
- MIC after treatment 17 [1]: 4 µM
- MIC after treatment 18 [1]: 4 µM
- MIC after treatment 19 [1]: 4 µM
- MIC after treatment 20 [1]: 4 µM
- MIC after treatment 21 [1]: 4 µM

Substance: Colistin [reference compound]
- MIC after treatment 1 (A. baumannii ATCC 19606): 4 µM
- MIC after treatment 2 (A. baumannii ATCC 19606): 4 µM
- MIC after treatment 3 (A. baumannii ATCC 19606): 4 µM
- MIC after treatment 4 (A. baumannii ATCC 19606): 4 µM
- MIC after treatment 5 (A. baumannii ATCC 19606): 4 µM
- MIC after treatment 6 (A. baumannii ATCC 19606): 4 µM
- MIC after treatment 7 (A. baumannii ATCC 19606): 4 µM
- MIC after treatment 8 (A. baumannii ATCC 19606): 4 µM
- MIC after treatment 9 (A. baumannii ATCC 19606): 4 µM
- MIC after treatment 10 (A. baumannii ATCC 19606): 4 µM
- MIC after treatment 11 (A. baumannii ATCC 19606): 4 µM
- MIC after treatment 12 (A. baumannii ATCC 19606): 4 µM
- MIC after treatment 13 (A. baumannii ATCC 19606): 4 µM
- MIC after treatment 14 (A. baumannii ATCC 19606): 4 µM
- MIC after treatment 15 (A. baumannii ATCC 19606): 4 µM
- MIC after treatment 16 (A. baumannii ATCC 19606): 4 µM
- MIC after treatment 17 (A. baumannii ATCC 19606): 4 µM
- MIC after treatment 18 (A. baumannii ATCC 19606): 4 µM
- MIC after treatment 19 (A. baumannii ATCC 19606): 4 µM
- MIC after treatment 20 (A. baumannii ATCC 19606): 4 µM
- MIC after treatment 21 (A. baumannii ATCC 19606): 4 µM
- MIC after treatment 1 [1]: 8 µM
- MIC after treatment 2 [1]: 8 µM
- MIC after treatment 3 [1]: 8 µM
- MIC after treatment 4 [1]: 8 µM
- MIC after treatment 5 [1]: 8 µM
- MIC after treatment 6 [1]: 8 µM
- MIC after treatment 7 [1]: 8 µM
- MIC after treatment 8 [1]: 8 µM
- MIC after treatment 9 [1]: 8 µM
- MIC after treatment 10 [1]: 8 µM
- MIC after treatment 11 [1]: 8 µM
- MIC after treatment 12 [1]: 8 µM
- MIC after treatment 13 [1]: 8 µM
- MIC after treatment 14 [1]: 8 µM
- MIC after treatment 15 [1]: 8 µM
- MIC after treatment 16 [1]: 8 µM
- MIC after treatment 17 [1]: 8 µM
- MIC after treatment 18 [1]: 8 µM
- MIC after treatment 19 [1]: 8 µM
- MIC after treatment 20 [1]: 8 µM
- MIC after treatment 21 [1]: 8 µM

— article PMC12848717, “Discovery of Encrypted Peptides in a Human Matrix Metallopeptidase” (JACS Au, 2025)
